US11077078B2, “Compositions and methods for the treatment of cancer” (KoDiscovery, LLC, priority 2006, dated 2021)

What was measured:
[1] = tested on: human prostate cancer cells; experiment: Cell viability/proliferation of human prostate cancer cells vs various anti-cancer agents (FIG. 9); format: cell-based
Excerpt: The anti-cancer compositions described herein can be used to treat any cancer having increased glycolysis; the metabolic phenotype referred to as the “Warburg Effect”, as described above. In another embodiment, the anti-cancer compositions can be used to treat any cancer that can be detected by Positron Emission Tomography (PET), which detects this metabolic phenotype. For example, FIG. 5 illustrates a reaction scheme for PET scanning. Human cancer cell lines that the present anti-cancer composition has shown to be effective against include liver, cervical, ovarian, lung, breast, colon, neuroblastoma, medulloblastoma, prostate, skin, pancreatic, childhood fibrolamellar hepatocellular carcinoma (FHCC), hepatocellular carcinoma (HCC), non small cell lung cancer. For example, FIG. 9 depicts a bar graph showing various cancer drugs effects on human prostate cancer cells. […] As such, the present cancers that can be treated with the present anti-cancer compositions can be selected from the group consisting of liver, cervical, ovarian, lung, breast, colon, neuroblastoma, medulloblastoma, prostate, skin, pancreatic, childhood fibrolamellar hepatocellular carcinoma (FHCC), hepatocellular carcinoma (HCC), non small cell lung cancer. […]

[2] = tested on: liver cancer cells; experiment: Photographs of liver cancer cells treated with 3BP (FIG. 2); format: cell-based
Excerpt: The presently disclosed cellular energy inhibitors, shown as 3-bromopyruvate (3BP) (a lactic acid analog) in FIG. 1, are small chemicals and can mimic the lactic acid chemical structure; depicted as a small diamond in FIG. 1. Therefore, cellular energy inhibitors disguised as lactic acid can “trick” the cancer cells and enter like a Trojan horse (FIG. 1). The inhibitors have little effect on normal cells as these contain very few lactic acid transporters. Because of the present cellular energy inhibitors' highly reactive nature, it can destroy the two energy production factories (FIG. 1; one diamond above the hexokinase (HK), shown as 3BP is destroying one energy production factory, i.e., glycolysis, and another red diamond inside the mitochondrion means that 3BP is destroying also this energy production factory). As a result, the cellular energy (ATP) can be depleted very rapidly by cellular energy inhibitors; 3BP in FIG. 1, attack the two factories at the same time causing the cancer cells to rapidly explode (cell membrane rupturing). […] Here, the healthy cancer cells are round and iridescent (left picture).

[3] = tested on: metastatic lung tumors; experiment: Metastatic lung cancer study in rabbits, IP port delivery (FIG. 4); details: dissected lungs
[4] = tested on: Hepatocellular carcinoma cells; experiment: Rat hepatocellular carcinoma study: cancer cell viability vs μM of anti-cancer agents (FIG. 3); details: 23 hour period; 3-bromopyruvate with as little as 20 μM

## O=C(O)C(=O)CBr [3-Bromopyruvate, 3-bromopyruvate]
[1]
  stopping cancer cell proliferation vs other known chemo-agents: better than other known chemo-agents in stopping cancer cell proliferation
[2]
  cell morphology / death after treatment: the cell membranes rupture
[3]
  metastatic lung cancer after treatment: no metastatic lung cancer
[4]
  cell viability: approx. 5%
